Assay [1] concerns MCF-7 cells. Briefly: Cell growth test (CellTiter-Blue), MCF-7. The settings on record: Homo sapiens, MCF7; MCF-7, normoxia, 72 hours; read-out: IC50 (50% decrease in cell growth). The assay is classed as cell-based. On the procedure:
(§1) The biological activity of compound (1), as well as that of its structural analogues, was studied in vitro on 7 different cancer cell lines: • HCT-116 (colorectal cancer) • U87 (glioblastoma) • K562 (myeloid leukemia) and K562 R • MDA-MB 231 (mammary adenocarcinoma) • MCF-7 (mammary adenocarcinoma) • A549 (pulmonary alveolar adenocarcinoma)
(§2) The cells selected for this study were incubated at 37° C. in the presence of compound (1) added in the culture medium at various concentrations and at various times. The set of experiments carried out made it possible to determine the degree of cytotoxicity of the compound tested (IC50), its capacity to induce cell death by apoptosis, in close dependence on extracellular superoxide anion for its activation.
(§3) The effect of compound (1) on the growth of HCT-116, U87, K562, K562R, MDA-MB 231, MCF-7 and A549 cells, cultured in normoxia, was evaluated using a cell growth test (CellTiter-Blue™ Cell Viability Assay, Promega).
(In general: Resazurin is reduced to fluorescent resorufin, in cell work by metabolically active cells.)

In assay [2] the test system is MDA-MB 231 cells. The experiment in a line: Cell growth test (CellTiter-Blue), MDA-MB 231. The format is cell-based. The conditions noted are these: Homo sapiens; MDA-MB 231, normoxia, 72 hours; read-out: IC50 (50% decrease in cell growth). The method, then: as §1, §2, §3
In assay [3] the test system is HCT-116 cells. The experiment in a line: Condensed chromatin (Hoechst 33258) after SOD pretreatment. The assay is classed as cell-based. The settings on record: HCT-116, SOD1 50 U/ml pretreatment, normoxia. The method, then:
In order to determine the role of superoxide anion, produced by the cells, in the activation of compound (1), HCT-116 cells were pretreated for 1 hour with the enzyme superoxide dismutase (SOD1) at 50 U/ml, then treated with compound (1). The cells were analyzed to evaluate, firstly, cell survival in normoxia (72 hours of treatment) and in hypoxia (48 hours of treatment). Secondly, the formation of condensed chromatin in normoxia and the activity of caspases 3 and 7 in normoxia were evaluated.

For assay [4], the system named is caspases 3 and 7 in U87 cells. The experiment in a line: Caspase 3 and 7 activity (ApoONE test), U87. The format is cell-based, human. The settings on record: U87, normoxia, 24 hours, 1 μM to 50 μM. The method, then:
In order to specify whether compound (1) leads to apoptotic cell death, the activity of caspases 3 and 7, marker enzymes of apoptosis, was measured using the ApoONE test (Promega) in HCT-116, U87 and HL60 cells treated in normoxia for 24 hours with compound (1) at concentrations varying from 1 μM to 50 μM.

Assay [5] concerns endothelial cells (HUVEC). Briefly: Survival of endothelial cells in proliferative or quiescent phase. The assay is classed as cell-based, human. The settings on record: 48 hours. The method, then:
In order to understand the difference in the observed effects of compound (1) according to whether the vasculature is already formed or is growing “de novo”, vascular endothelial cells were cultured at two different cell densities so as to obtain proliferative phase cells or quiescent cells, then treated or not by compound (1), at 10 μM (IC50 value: 8 μM) for 48 hours. […] Compound (1) may thus be used to treat diseases associated with excessive and abnormal angiogenesis, like cancer or ARMD.

The nature of assay [6]: EPR competition with BMPO, superoxide anion from xanthine/xanthine oxidase (aqueous phase). The settings on record: xanthine oxidase 53 mU/mL + xanthine 250 μM in PBS pH 7.4, BMPO 50 mM, 10 minutes of incubation; read-out: IC50, inhibition of the formation of the BMPO superoxide adduct. The format is biochemical. On the procedure:
The reactivity of compound (1) with superoxide anion in the aqueous phase was also studied by EPR at room temperature using the same competition method with the trapping reagent BMPO at 50 mM (FIG. 1B). In this case, superoxide anion is produced by enzymatic reaction of xanthine oxidase (XO, 53 mU/mL) with xanthine (X, 250 μM) in PBS (pH 7.4) containing 0.1 mM ethylenediaminetetraacetic acid (EDTA). The concentrations used for compound (1) are between 0.34 μM and 43.1 μM. These experiments were carried out with an ELEXSYS E500 EPR spectrometer (Bruker, Wissembourg, France), operating at a frequency of 9.82 GHz (X-band) with the following parameters: magnetic field: 349.0 ±6.6 mT; sweep time: 41.94 s; sampling: 1024 points; time constant: 40.96 ms; conversion time: 40.96 ms; modulation amplitude: 0.10 mT; modulation frequency: 100 kHz; gain: 60 dB; microwave power: 10 mW.

Assay [7] relates to K562 cells. The experiment in a line: Cell growth test (CellTiter-Blue), K562. The assay is classed as cell-based. The settings on record: Homo sapiens; K562, normoxia, 72 hours; read-out: IC50 (50% decrease in cell growth). On the procedure: as §1, §2, §3
For assay [8], the system named is A549 cells. Briefly: Cell growth test (CellTiter-Blue), A549. The format is cell-based. The settings on record: Homo sapiens; A549, normoxia, 72 hours; read-out: IC50 (50% decrease in cell growth). The method, then: as §1, §2, §3
Assay [9] concerns human endothelial cells (HUVEC). The experiment in a line: De novo formation of vascular tubes on Matrigel. The assay is classed as cell-based. The settings on record: HUVEC in Matrigel, 24 hours. On the procedure:
In order to monitor the effect of compound (1) on “de novo” formation of vascular tubes, human endothelial cells (HUVEC) were cultured in a matrix (Matrigel), in the presence or absence of compound (1). After 24 hours, the effect of compound (1) is analyzed by optical microscopy and is illustrated by photographs. […] Compound (1) thus acts directly on growing endothelial cells by blocking the formation of capillaries, in contrast to the absence of effect on a capillary network already formed, in the “quiescent” state.

In assay [10] the test system is chick embryo chorioallantoic membrane. The experiment in a line: In ovo physiological angiogenesis on chick embryo chorioallantoic membrane. The assay is classed as in vivo. The conditions noted are these: 20 μL of 50 μM solution on CAM, seventh day of embryonic development. The method, then: The effect of compound (1) on physiological angiogenesis was evaluated using the chick embryo chorioallantoic membrane (CAM) model which constitutes a richly vascularized tissue.
At the seventh day of embryonic development, 20 μL of the 50 μM solution of compound (1) was deposited on the chorioallantoic membrane whereas the control membranes were treated with solvent.

For assay [11], the system named is U87 cells. Briefly: VEGF secretion by ELISA, U87 culture supernatant. The assay is classed as cell-based, human. The conditions noted are these: U87, normoxic and hypoxic (2% O2) conditions, concentrations of 5 to 50, 24 hours. On the procedure: At the tenth day of embryonic development, glioblastoma cells (U87, 5×10^6 in 20 μL) were deposited on the chorioallantoic membrane. Two days after the graft, compound (1) at a concentration of 50 μM in a volume of 20 μL was deposited on the surface of the tumor formed. This treatment was repeated every 24 hours for 5 days. The control group was treated with solvent. The test was carried out on 20 eggs bearing glioblastoma tumors for each group. Images of the tumors were taken at day 3 (24 hours after treatment), at day 5 (3 days after treatment) and at day 7 (5 days after treatment) of tumor development. […] In order to determine the antiangiogenic mechanism of compound (1), VEGF was assayed by the ELISA method (Invitrogen, Novex technology), from the culture supernatant of U87 and HCT-116 cells, under normoxic and hypoxic conditions.
A general note: ELISA stands for enzyme-linked immunosorbent assay.

For `OCCCn1cc(-c2ccccc2)c(-c2ccc(O)c(O)c2)c1` [compound (1)], the half-maximal inhibitory concentration (IC50) in assay [1] came to 15 µM; in [2] it was 20 µM; in assay [5] (Homo sapiens, HUVEC, read-out: IC50 value, vascular endothelial cells), 8 µM; in assay [6], 3.2 µM; in assay [7], 232 µM; in assay [8], 15 µM. The “increase in condensed chromatin after SOD pretreatment” value in [3] is “completely suppresses the increase in condensed chromatin”. In addition, in assay [4], the “activity of caspases 3 and 7” value was “significant activation of both caspases”. Further, the “effect on quiescent endothelial cells” value in assay [5] (10 μM, quiescent cells) was “acts only on endothelial cells in the proliferative phase”. Besides, the inhibition at 10 µM in assay [5] (Homo sapiens, HUVEC, 10 μM, proliferative phase) turned out to be 78%. Further, the “de novo formation of vascular tubes (capillaries)” value in assay [9] is on record as “prevents the formation of capillaries”. The “effect on physiological angiogenesis” value in [10] is on record as “absence of the effect”. For the same compound, in assay [11], the VEGF secretion result was “does not modify VEGF secretion”.

As usually defined, the IC50 is the concentration at which inhibition is half-maximal. The term inhibition denotes the percentage by which the read-out fell short of the control.
